# Assay results published in ChEMBL document CHEMBL1201862, “PubChem BioAssay data set” (2004).
#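 Dose response: 5 concentrations. Exposure: 48 h. Format: 96-well plates. Endpoint: linear interpolation; highest concentration if not reached. GI50 marks 50% less growth.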 Active and inactive are the calls of the source. Rule as the data show it: active = GI50 up to about 1.1 µM and inactive = higher.
# Experiments:
# Test in all cases: inhibition of tumour cell growth, NCI panel, 48 h
# HCC 2998 = system: HCC 2998
# TK-10 = system: TK-10
# CCRF-CEM = system: CCRF-CEM
# DU-145 = system: DU-145
# RXF 393 = system: RXF 393
# OVCAR-3 = system: OVCAR-3
# OVCAR-5 = system: OVCAR-5
# MDA-MB-435 = system: MDA-MB-435
# MDA-MB-231 = system: MDA-MB-231
# HT-29 = system: HT-29
# NCI/ADR-RES = system: NCI/ADR-RES
# SK-OV-3 = system: SK-OV-3
# SK-MEL-2 = system: SK-MEL-2
# LOX IMVI = system: LOX IMVI
# HL-60 = system: HL-60
# HCT-116 = system: HCT-116
# EKVX = system: EKVX
# SN12C = system: SN12C
# 786-0 = system: 786-0
# SW-620 = system: SW-620
# PC-3 = system: PC-3
# SF-539 = system: SF-539
# NCI-H226 = system: NCI-H226
# RPMI-8226 = system: RPMI-8226
# KM12 = system: KM12
# NCI-H522 = system: NCI-H522
# MOLT-4 = system: MOLT-4
# HOP-92 = system: HOP-92
# CAKI-1 = system: CAKI-1
# SF-295 = system: SF-295
# UACC-257 = system: UACC-257
# OVCAR-4 = system: OVCAR-4
# SK-MEL-28 = system: SK-MEL-28
# NCI-H460 = system: NCI-H460
# UO-31 = system: UO-31
# M14 = system: M14
# T47D = system: T47D
# SNB-75 = system: SNB-75
# MDA-N = system: MDA-N
# MCF7 = system: MCF7
# K562 = system: K562
# HCT-15 = system: HCT-15
# SR = system: SR
# A498 = system: A498
# ACHN = system: ACHN
# OVCAR-8 = system: OVCAR-8
# HOP-62 = system: HOP-62
# NCI-H23 = system: NCI-H23
# Malme-3M = system: Malme-3M
# U-251 = system: U-251
# BT-549 = system: BT-549
# UACC-62 = system: UACC-62
# SF-268 = system: SF-268
# SNB-19 = system: SNB-19
# SK-MEL-5 = system: SK-MEL-5
# COLO 205 = system: COLO 205
# Hs-578T = system: Hs-578T
# IGROV-1 = system: IGROV-1
# A549 = system: A549
compound,measurement,setting,value
CCCCCCNCCCNc1c2ccccc2nc2cccc([N+](=O)[O-])c12,GI50,HCC 2998,6.65 nM (active)
same,GI50,TK-10,62.1 nM (active)
same,GI50,CCRF-CEM,22.9 nM (active)
same,GI50,DU-145,5.37 nM (active)
same,GI50,RXF 393,14.8 nM (active)
same,GI50,OVCAR-3,17.1 nM (active)
same,GI50,OVCAR-5,31.5 nM (active)
same,GI50,MDA-MB-435,10.3 nM (active)
same,GI50,MDA-MB-231,22.9 nM (active)
same,GI50,HT-29,5.28 nM (active)
same,GI50,NCI/ADR-RES,330 nM (active)
same,GI50,SK-OV-3,51 nM (active)
same,GI50,SK-MEL-2,18.1 nM (active)
same,GI50,LOX IMVI,19.3 nM (active)
same,GI50,HL-60,15.1 nM (active)
same,GI50,HCT-116,35.2 nM (active)
same,GI50,EKVX,24.6 nM (active)
same,GI50,SN12C,17.3 nM (active)
same,GI50,786-0,9.48 nM (active)
same,GI50,SW-620,4.81 nM (active)
same,GI50,PC-3,16.3 nM (active)
same,GI50,SF-539,116 nM (active)
same,GI50,NCI-H226,54.7 nM (active)
same,GI50,RPMI-8226,2.47 nM (active)
same,GI50,KM12,12.7 nM (active)
same,GI50,NCI-H522,12.1 nM (active)
same,GI50,MOLT-4,6.58 nM (active)
same,GI50,HOP-92,21.1 nM (active)
same,GI50,CAKI-1,54.8 nM (active)
same,GI50,SF-295,18.8 nM (active)
same,GI50,UACC-257,101 nM (active)
same,GI50,OVCAR-4,14.7 nM (active)
same,GI50,SK-MEL-28,158 nM (active)
same,GI50,NCI-H460,2.69 nM (active)
same,GI50,UO-31,122 nM (active)
same,GI50,M14,11.9 nM (active)
same,GI50,T47D,36.9 nM (active)
same,GI50,SNB-75,48.5 nM (active)
same,GI50,MDA-N,11.8 nM (active)
same,GI50,MCF7,3.76 nM (active)
same,GI50,K562,3.76 nM (active)
same,GI50,HCT-15,61.5 nM
same,GI50,SR,25.6 nM (active)
same,GI50,A498,164 nM (active)
same,GI50,ACHN,13.2 nM (active)
same,GI50,OVCAR-8,12 nM (active)
same,GI50,HOP-62,24.5 nM (active)
same,GI50,NCI-H23,11.6 nM (active)
same,GI50,Malme-3M,20.6 nM (active)
same,GI50,U-251,11.8 nM (active)
same,GI50,BT-549,110 nM (active)
same,GI50,UACC-62,27.9 nM (active)
same,GI50,SF-268,16.3 nM (active)
same,GI50,SNB-19,84.5 nM (active)
same,GI50,SK-MEL-5,10.3 nM (active)
same,GI50,COLO 205,3.47 nM (active)
same,GI50,Hs-578T,44.8 nM (active)
same,GI50,IGROV-1,8.73 nM (active)
same,GI50,A549,4.09 nM (active)
Cc1ccccc1NC(=O)CC(=O)NNC(Sc1ccccc1)c1cc(/N=N/c2ccc(Br)cc2)ccc1O (stereo not drawn),GI50,HCC 2998,7360 nM (inactive)
same,GI50,TK-10,1390 nM (inactive)
same,GI50,CCRF-CEM,430 nM (active)
same,GI50,DU-145,2210 nM (inactive)
same,GI50,RXF 393,2130 nM (inactive)
same,GI50,OVCAR-3,368 nM (active)
same,GI50,OVCAR-5,7590 nM (inactive)
same,GI50,MDA-MB-435,3650 nM (inactive)
same,GI50,MDA-MB-231,1140 nM (inactive)
same,GI50,HT-29,9480 nM (inactive)
same,GI50,NCI/ADR-RES,1710 nM (inactive)
same,GI50,SK-OV-3,5260 nM (inactive)
same,GI50,SK-MEL-2,5930 nM (inactive)
same,GI50,LOX IMVI,1490 nM (inactive)
same,GI50,HL-60,277 nM (active)
same,GI50,HCT-116,308 nM (active)
same,GI50,EKVX,5020 nM (inactive)
same,GI50,SN12C,2490 nM (inactive)
same,GI50,786-0,551 nM (active)
same,GI50,SW-620,723 nM (active)
same,GI50,PC-3,877 nM (active)
same,GI50,SF-539,1370 nM (inactive)
same,GI50,NCI-H226,2040 nM (inactive)
same,GI50,RPMI-8226,1700 nM (inactive)
same,GI50,KM12,4790 nM (inactive)
same,GI50,NCI-H522,6010 nM (inactive)
same,GI50,MOLT-4,332 nM (active)
same,GI50,HOP-92,5970 nM (inactive)
same,GI50,CAKI-1,2530 nM (inactive)
same,GI50,SF-295,2750 nM (inactive)
same,GI50,UACC-257,3650 nM (inactive)
same,GI50,OVCAR-4,2090 nM (inactive)
same,GI50,SK-MEL-28,6520 nM (inactive)
same,GI50,NCI-H460,658 nM (active)
same,GI50,UO-31,2680 nM (inactive)
same,GI50,M14,723 nM (active)
same,GI50,T47D,3930 nM (inactive)
same,GI50,SNB-75,3790 nM (inactive)
same,GI50,MDA-N,3140 nM (inactive)
same,GI50,MCF7,798 nM (active)
same,GI50,K562,2730 nM (inactive)
same,GI50,HCT-15,836 nM
same,GI50,SR,370 nM (active)
same,GI50,A498,2400 nM (inactive)
same,GI50,ACHN,1820 nM (inactive)
same,GI50,OVCAR-8,552 nM (active)
same,GI50,HOP-62,2170 nM (inactive)
same,GI50,NCI-H23,3080 nM (inactive)
same,GI50,Malme-3M,3260 nM (inactive)
same,GI50,U-251,2640 nM (inactive)
same,GI50,BT-549,3720 nM (inactive)
same,GI50,UACC-62,1000 nM (active)
same,GI50,SF-268,733 nM (active)
same,GI50,SNB-19,9480 nM (inactive)
same,GI50,SK-MEL-5,1240 nM (inactive)
same,GI50,COLO 205,3100 nM (inactive)
same,GI50,Hs-578T,> 10000 nM (inactive)
same,GI50,IGROV-1,8020 nM (inactive)
same,GI50,A549,3420 nM (inactive)
